According to ChEMBL document CHEMBL1201862, “PubChem BioAssay data set” (2004):
Where a name gives a salt, the structure may show the parent alone.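 Assay format: 96-well plates, 48-hour exposure. Here, GI50 denotes the concentration required for 50% inhibition of growth.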 Active and inactive are the calls of the source. No stated cut-off is given here; in the data, active = GI50 up to about 1.1 µM and inactive = higher.

Key:
Experiment in all cases: NCI-60 cell line screen, 48 h
A549 = system: A549
RPMI-8226 = system: RPMI-8226
EKVX = system: EKVX
SK-MEL-5 = system: SK-MEL-5
U-251 = system: U-251
OVCAR-5 = system: OVCAR-5
HT-29 = system: HT-29
UACC-257 = system: UACC-257
HOP-92 = system: HOP-92
TK-10 = system: TK-10
Hs-578T = system: Hs-578T
MDA-MB-435 = system: MDA-MB-435
SNB-75 = system: SNB-75
Malme-3M = system: Malme-3M
MCF7 = system: MCF7
T47D = system: T47D
PC-3 = system: PC-3
UACC-62 = system: UACC-62
NCI-H23 = system: NCI-H23
MDA-N = system: MDA-N

| SMILES | GI50 (A549) | GI50 (RPMI-8226) | GI50 (EKVX) | GI50 (SK-MEL-5) | GI50 (U-251) | GI50 (OVCAR-5) | GI50 (HT-29) | GI50 (UACC-257) | GI50 (HOP-92) | GI50 (TK-10) | GI50 (Hs-578T) | GI50 (MDA-MB-435) | GI50 (SNB-75) | GI50 (Malme-3M) | GI50 (MCF7) | GI50 (T47D) | GI50 (PC-3) | GI50 (UACC-62) | GI50 (NCI-H23) | GI50 (MDA-N) |
| --- | --- | --- | --- | --- | --- | --- | --- | --- | --- | --- | --- | --- | --- | --- | --- | --- | --- | --- | --- | --- |
| COc1cc2nc(-c3cccs3)oc(=O)c2cc1OC | > 100 µM (inactive) | > 100 µM (inactive) | > 100 µM (inactive) | > 100 µM (inactive) | 38.5 µM (inactive) | > 100 µM (inactive) | > 100 µM (inactive) | > 100 µM (inactive) | > 100 µM (inactive) | > 100 µM (inactive) | 72.1 µM (inactive) | > 100 µM (inactive) | > 100 µM (inactive) | > 100 µM (inactive) | > 100 µM (inactive) | > 100 µM (inactive) | > 100 µM (inactive) | > 100 µM (inactive) | 97.9 µM (inactive) | – |
| C[C@]12CCC3c4ccc(O)cc4CC[C@H]3C1CC(=O)NC2=O (stereo not given in full) | > 10 µM (inactive) | > 10 µM (inactive) | – | > 10 µM (inactive) | > 10 µM (inactive) | > 10 µM (inactive) | > 10 µM (inactive) | > 10 µM (inactive) | > 10 µM (inactive) | > 10 µM (inactive) | – | > 10 µM (inactive) | – | > 10 µM (inactive) | > 10 µM (inactive) | > 10 µM (inactive) | > 10 µM (inactive) | – | > 10 µM (inactive) | > 10 µM (inactive) |
| N=C(N)N/N=C\c1c(-c2cccc([N+](=O)[O-])c2)nc2sc(Cl)cn12 | 2.84 µM (inactive) | 2.22 µM (inactive) | 3.15 µM (inactive) | 24.4 µM (inactive) | 3.17 µM (inactive) | 3.91 µM (inactive) | 1.73 µM (inactive) | 2.29 µM (inactive) | 3.16 µM (inactive) | 2.38 µM (inactive) | 43.4 µM (inactive) | 2.07 µM (inactive) | 1.52 µM (inactive) | 2.42 µM (inactive) | 2.61 µM (inactive) | 1.64 µM (inactive) | 2.13 µM (inactive) | 27.5 µM (inactive) | 2.75 µM (inactive) | – |
| O=C(/C=C/c1ccccc1)NNC(=O)c1c(Cl)c(Cl)c(Cl)c(Cl)c1-c1nc2ccccc2[nH]1 | 0.0966 µM (active) | 26.9 µM (inactive) | 17.6 µM (inactive) | 22 µM (inactive) | – | 25 µM (inactive) | 32.8 µM (inactive) | 27.7 µM (inactive) | 18.7 µM (inactive) | – | – | 15.7 µM (inactive) | 18.2 µM (inactive) | 26.5 µM (inactive) | 24.2 µM (inactive) | 18.4 µM (inactive) | 32.5 µM (inactive) | 15.7 µM (inactive) | 23.2 µM (inactive) | 11.3 µM (inactive) |
| CC1(C)CC(=O)C(=CNc2nc(-c3ccccc3)cs2)C(=O)C1 | 49 µM (inactive) | – | 26.2 µM (inactive) | 38.1 µM (inactive) | 29.3 µM (inactive) | > 100 µM (inactive) | 33.6 µM (inactive) | 35.1 µM (inactive) | 71 µM (inactive) | 24 µM (inactive) | – | 24.9 µM (inactive) | 33.7 µM (inactive) | – | 29.2 µM (inactive) | 32.7 µM (inactive) | 38.6 µM (inactive) | – | 32.4 µM (inactive) | 30.1 µM (inactive) |
| C/C(=C\CO)CC/C=C(\C)CNc1ccc([N+](=O)[O-])cc1 | 34.2 µM (inactive) | – | 24.8 µM (inactive) | 12 µM (inactive) | 23.7 µM (inactive) | 41.7 µM (inactive) | 27.4 µM (inactive) | 21.6 µM (inactive) | – | 7.67 µM (inactive) | 16.6 µM (inactive) | 28.6 µM (inactive) | 0.0219 µM (active) | 8.2 µM (inactive) | 40.6 µM (inactive) | 11.6 µM (inactive) | 18 µM (inactive) | 27.5 µM (inactive) | 2.57 µM (inactive) | – |
| O=C(Nc1ccc(S(=O)(=O)Nc2ncccn2)cc1)c1c2ccccc2nc2ccccc12 | > 100 µM (inactive) | > 100 µM (inactive) | > 100 µM (inactive) | > 100 µM (inactive) | > 100 µM (inactive) | > 100 µM (inactive) | > 100 µM (inactive) | > 100 µM (inactive) | > 100 µM (inactive) | > 100 µM (inactive) | – | > 100 µM (inactive) | > 100 µM (inactive) | > 100 µM (inactive) | > 100 µM (inactive) | – | > 100 µM (inactive) | > 100 µM (inactive) | > 100 µM (inactive) | > 100 µM (inactive) |
| COc1cccc(-c2nc(-c3cnccn3)n(Cc3ccccc3)n2)c1 | > 100 µM (inactive) | > 100 µM (inactive) | > 100 µM (inactive) | 89.3 µM (inactive) | > 100 µM (inactive) | > 100 µM (inactive) | > 100 µM (inactive) | > 100 µM (inactive) | 26.5 µM (inactive) | > 100 µM (inactive) | – | > 100 µM (inactive) | 24.4 µM (inactive) | – | > 100 µM (inactive) | > 100 µM (inactive) | > 100 µM (inactive) | 91.4 µM (inactive) | > 100 µM (inactive) | > 100 µM (inactive) |
| C/C(=N\Nc1ccccc1Br)c1cccc(/C(C)=N/Nc2ccccc2Br)n1 | > 100 µM (inactive) | > 100 µM (inactive) | > 100 µM (inactive) | > 100 µM (inactive) | > 100 µM (inactive) | > 100 µM (inactive) | > 100 µM (inactive) | > 100 µM (inactive) | 81.5 µM (inactive) | 69.7 µM (inactive) | – | 30 µM (inactive) | 13 µM (inactive) | 66.8 µM (inactive) | 54.1 µM (inactive) | – | 42.8 µM (inactive) | – | > 100 µM (inactive) | 31.7 µM (inactive) |
| O=S(=O)(Oc1ccc2ccccc2c1-c1c(OS(=O)(=O)C(F)(F)F)ccc2ccccc12)C(F)(F)F | 35 µM (inactive) | 27.5 µM (inactive) | 66.4 µM (inactive) | 7.01 µM (inactive) | 32.1 µM (inactive) | > 100 µM (inactive) | 41.9 µM (inactive) | 1.32 µM (inactive) | 12.5 µM (inactive) | – | > 100 µM (inactive) | 45.5 µM (inactive) | > 100 µM (inactive) | > 100 µM (inactive) | > 100 µM (inactive) | – | 12.7 µM (inactive) | > 100 µM (inactive) | 75.2 µM (inactive) | – |
| CCOc1ccc(N/C(=C(/C(Cl)=C(/Cl)Nc2ccccc2)[N+](=O)[O-])n2nnc3ccccc32)cc1 | 29.1 µM (inactive) | 50.7 µM (inactive) | 28.8 µM (inactive) | 17.7 µM (inactive) | 18.2 µM (inactive) | 35.5 µM (inactive) | – | 34.6 µM (inactive) | 16 µM (inactive) | 32.9 µM (inactive) | – | 29.4 µM (inactive) | 57.1 µM (inactive) | 21.9 µM (inactive) | 35.7 µM (inactive) | 40.5 µM (inactive) | 23.2 µM (inactive) | 17.8 µM (inactive) | 13.7 µM (inactive) | 19.8 µM (inactive) |
| O=C1O/C(=C/c2ccccc2)C(c2ccccc2)=C1O | 33.3 µM (inactive) | 28 µM (inactive) | 39.2 µM (inactive) | 34.4 µM (inactive) | 31.3 µM (inactive) | > 100 µM (inactive) | > 100 µM (inactive) | > 100 µM (inactive) | 61.5 µM (inactive) | 75 µM (inactive) | – | 29.8 µM (inactive) | 67.3 µM (inactive) | 60.7 µM (inactive) | 34.4 µM (inactive) | 27.2 µM (inactive) | 29.2 µM (inactive) | 18.5 µM (inactive) | 19 µM (inactive) | 34 µM (inactive) |
| O=C(CCCN1CCC(O)(c2ccc(Cl)cc2)CC1)c1ccc(F)cc1 [HALOPERIDOL] | 42.8 µM (inactive) | 25.1 µM (inactive) | 82.4 µM (inactive) | 15.9 µM (inactive) | 20.7 µM (inactive) | 28.8 µM (inactive) | 18.8 µM (inactive) | 20.9 µM (inactive) | 48.2 µM (inactive) | 39.8 µM (inactive) | 25.4 µM (inactive) | 17.5 µM (inactive) | 23.8 µM (inactive) | 19.6 µM (inactive) | 37.9 µM (inactive) | 37.5 µM (inactive) | 70 µM (inactive) | 2.31 µM (inactive) | 31 µM (inactive) | – |
| CC1(C)CCC2=C(O1)c1ccccc1C(=O)C2=O [LAPACHONE] | 0.753 µM (active) | 0.284 µM (active) | 1.72 µM (inactive) | 0.272 µM (active) | 0.337 µM (active) | 0.571 µM (active) | 2.5 µM (inactive) | 0.0938 µM (active) | 3.15 µM (inactive) | 2.24 µM (inactive) | – | 2.07 µM (inactive) | 0.358 µM (active) | 0.427 µM (active) | 0.455 µM (active) | 0.411 µM (active) | 0.847 µM (active) | 0.475 µM (active) | 0.427 µM (active) | 0.2 µM (active) |
| CC(CN1c2ccccc2Sc2ccccc21)N(C)C (stereo not given) [PROMETHAZINE HYDROCHLORIDE] | 20 µM (inactive) | – | 22.6 µM (inactive) | 21.1 µM (inactive) | 14.2 µM (inactive) | 18.2 µM (inactive) | 16.4 µM (inactive) | 23.9 µM (inactive) | 17.1 µM (inactive) | – | – | 16.9 µM (inactive) | 3.78 µM (inactive) | 18.9 µM (inactive) | 25.8 µM (inactive) | 21.5 µM (inactive) | 15.8 µM (inactive) | 19 µM (inactive) | 21.8 µM (inactive) | – |
